Several values for one entry are separate records, joined by “and”; a condition that tells them apart may be missing. Identical values can stand only once.
Experiments:
Assay type in all cases: functional
UO-31 = test: Growth inhibition of human UO31 cells assessed as cell growth at 1 mM after 48 hrs by SRB assay; settings: UO-31, 48 h, read-out: Activity
NCI-H522 = test: Growth inhibition of human NCI-H522 cells assessed as cell growth at 1 mM after 48 hrs by SRB assay; settings: NCI-H522, 48 h, read-out: Activity
HCT-116 = test: Growth inhibition of human HCT116 cells assessed as cell growth at 1 mM after 48 hrs by SRB assay; settings: HCT-116, 48 h, read-out: Activity
UACC-257 = test: Growth inhibition of human UACC257 cells assessed as cell growth at 1 mM after 48 hrs by SRB assay; settings: UACC-257, 48 h, read-out: Activity
MCF7 = test: Growth inhibition of human MCF7 cells assessed as cell growth at 1 mM after 48 hrs by SRB assay; parameters: Activity: scale not given: the % may be the effect or the level left
PC-3 [1] = test: Growth inhibition of human PC3 cells assessed as cell growth at 1 uM after 48 hrs by SRB assay; settings: PC-3, 48 h, read-out: Activity
EKVX = test: Growth inhibition of human EKVX cells assessed as cell growth at 100 uM after 48 hrs by SRB assay; settings: read-out: Activity
U-251 = test: Growth inhibition of human U251 cells assessed as cell growth at 1 mM after 48 hrs by SRB assay; settings: U-251, 48 h, read-out: Activity
MDA-MB-468 [2] = test: Growth inhibition of human MDA-MB-468 cells after 48 hrs by […] growth inhibition assay; settings: MDA-MB-468, 48 h
NCI-H322M = test: Growth inhibition of human NCI-H322M cells assessed as cell growth at 1 mM after 48 hrs by SRB assay; settings: read-out: Activity
PC-3 [3] = test: Growth inhibition of human PC3 cells assessed as cell growth at 100 uM after 48 hrs by SRB assay; settings: PC-3, 48 h, read-out: Activity
NCI/ADR-RES = test: Growth inhibition of human NCI/ADR-RES cells assessed as cell growth at 0.1 uM after 48 hrs by SRB assay; settings: read-out: Activity
SNB-75 = test: Growth inhibition of human SNB75 cells assessed as cell growth at 10 uM after 48 hrs by SRB assay; settings: SNB-75, 48 h, read-out: Activity
MDA-MB-468 [4] = test: Growth inhibition of human MDA-MB-468 cells assessed as cell growth at 10 uM after 48 hrs by SRB assay; settings: MDA-MB-468, 48 h, read-out: Activity
SR = test: Growth inhibition of human SR cells assessed as cell growth at 10 uM after 48 hrs by SRB assay; settings: read-out: Activity

Compound | growth at 1000 µM (UO-31) | growth at 1000 µM (NCI-H522) | growth at 1000 µM (HCT-116) | growth at 1000 µM (UACC-257) | Activity (MCF7) | growth at 1 µM (PC-3 [1]) | growth at 100 µM (EKVX) | growth at 1000 µM (U-251) | GI50 (MDA-MB-468 [2]; read-out: GI50) | CC50 (MDA-MB-468 [2]; read-out: LC50 (the source's name)) | TGI (MDA-MB-468 [2]; read-out: TGI) | GI50 (MDA-MB-468 [2]; read-out: pGI50 (converted)) | CC50 (MDA-MB-468 [2]; read-out: pLC50 (the source's name) (converted)) | TGI (MDA-MB-468 [2]; read-out: pTGI (converted)) | growth at 1000 µM (NCI-H322M) | growth at 100 µM (PC-3 [3]) | growth at 0.1 µM (NCI/ADR-RES) | growth at 10 µM (SNB-75) | growth at 10 µM (MDA-MB-468 [4]) | growth at 10 µM (SR)
CNC(=O)NC[C@H]1O[C@@H](n2cnc3c(NC(=O)Nc4ccccc4)ncnc32)[C@H](O[Si](C)(C)C(C)(C)C)[C@@H]1O[Si](C)(C)C(C)(C)C | -21% | -49% | -100% | -24% | -21% and -16% | 91% | 9% | -46% | 3.35 µM | > 100 µM | 13.9 µM | 3.39 µM | > 100 µM | 13.8 µM | 21% | 6% | 106% | 73% | 99% | –
CNC(=O)OC[C@H]1O[C@@H](n2cnc3c(NC(=O)Nc4ccccc4)ncnc32)[C@H](O[Si](C)(C)C(C)(C)C)[C@@H]1O[Si](C)(C)C(C)(C)C | – | – | – | – | – | – | – | – | – | – | – | – | – | – | – | – | – | 76.6% | 104% | 77.9%

Source: ChEMBL document CHEMBL1681651, “A broad spectrum anticancer nucleoside with selective toxicity against human colon cells in vitro” (2011)
